Values after ≈ are worked out from the molar mass of the structure shown. Where two headings read alike, the source gives them in different places.
Assays:
PBPK model = settings: human, oral, 600 mg
[1] = Apparent permeability in Caco-2 cells; assay type: in vitro ADME; settings: human
P-gp = P-gp (Homo sapiens, UniProt P08183); assay: P-gp inhibition in P-gp-transfected cell monolayers; assay type: in vitro ADME
CYP2C9 = CYP2C9 (Homo sapiens, UniProt P11712); assay: CYP2C9 inhibition; assay type: in vitro ADME
CYP2C8 = target: T1, CYP2C8 (Homo sapiens, UniProt P10632); assay: CYP2C8 inhibition; assay type: in vitro ADME
T1 sequence (P10632 1-490): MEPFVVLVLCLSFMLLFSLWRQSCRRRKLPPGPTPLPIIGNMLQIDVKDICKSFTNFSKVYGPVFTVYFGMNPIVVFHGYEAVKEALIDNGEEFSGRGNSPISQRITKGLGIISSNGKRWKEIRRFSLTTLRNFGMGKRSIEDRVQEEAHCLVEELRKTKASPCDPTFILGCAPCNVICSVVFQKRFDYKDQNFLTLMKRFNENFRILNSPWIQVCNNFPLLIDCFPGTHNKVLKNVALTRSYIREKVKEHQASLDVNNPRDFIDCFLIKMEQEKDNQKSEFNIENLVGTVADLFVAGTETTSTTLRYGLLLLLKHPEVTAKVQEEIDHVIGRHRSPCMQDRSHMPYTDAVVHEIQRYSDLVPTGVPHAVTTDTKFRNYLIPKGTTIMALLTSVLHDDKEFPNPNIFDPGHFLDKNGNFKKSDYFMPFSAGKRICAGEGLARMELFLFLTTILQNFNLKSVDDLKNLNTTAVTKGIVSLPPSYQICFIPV

[2] = Physicochemical input parameters
BCRP = target: T2, BCRP (Homo sapiens, UniProt Q9UNQ0); assay: BCRP inhibition in BCRP-transfected cell monolayers; assay type: in vitro ADME
T2 sequence (Q9UNQ0 1-655): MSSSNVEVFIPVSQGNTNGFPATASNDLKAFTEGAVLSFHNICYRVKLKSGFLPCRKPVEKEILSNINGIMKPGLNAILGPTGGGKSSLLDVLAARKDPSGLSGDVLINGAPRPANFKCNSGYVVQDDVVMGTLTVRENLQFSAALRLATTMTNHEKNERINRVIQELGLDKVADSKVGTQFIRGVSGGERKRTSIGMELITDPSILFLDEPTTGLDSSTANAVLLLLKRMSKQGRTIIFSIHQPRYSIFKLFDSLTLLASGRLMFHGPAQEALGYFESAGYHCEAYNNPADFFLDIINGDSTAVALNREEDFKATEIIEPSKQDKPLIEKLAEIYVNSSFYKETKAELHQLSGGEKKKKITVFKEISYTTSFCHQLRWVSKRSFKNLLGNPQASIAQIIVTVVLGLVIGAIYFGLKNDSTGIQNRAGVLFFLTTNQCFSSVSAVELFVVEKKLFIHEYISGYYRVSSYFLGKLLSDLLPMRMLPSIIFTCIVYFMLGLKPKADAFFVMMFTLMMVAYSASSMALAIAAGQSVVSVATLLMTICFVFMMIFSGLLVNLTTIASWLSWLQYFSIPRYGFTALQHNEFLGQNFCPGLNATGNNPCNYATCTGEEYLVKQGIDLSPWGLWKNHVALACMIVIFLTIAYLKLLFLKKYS

OATP1B1 = target: T3, OATP1B1 (Homo sapiens, UniProt Q9Y6L6); assay: OATP1B1 inhibition; assay type: in vitro ADME
T3 sequence (Q9Y6L6 1-691): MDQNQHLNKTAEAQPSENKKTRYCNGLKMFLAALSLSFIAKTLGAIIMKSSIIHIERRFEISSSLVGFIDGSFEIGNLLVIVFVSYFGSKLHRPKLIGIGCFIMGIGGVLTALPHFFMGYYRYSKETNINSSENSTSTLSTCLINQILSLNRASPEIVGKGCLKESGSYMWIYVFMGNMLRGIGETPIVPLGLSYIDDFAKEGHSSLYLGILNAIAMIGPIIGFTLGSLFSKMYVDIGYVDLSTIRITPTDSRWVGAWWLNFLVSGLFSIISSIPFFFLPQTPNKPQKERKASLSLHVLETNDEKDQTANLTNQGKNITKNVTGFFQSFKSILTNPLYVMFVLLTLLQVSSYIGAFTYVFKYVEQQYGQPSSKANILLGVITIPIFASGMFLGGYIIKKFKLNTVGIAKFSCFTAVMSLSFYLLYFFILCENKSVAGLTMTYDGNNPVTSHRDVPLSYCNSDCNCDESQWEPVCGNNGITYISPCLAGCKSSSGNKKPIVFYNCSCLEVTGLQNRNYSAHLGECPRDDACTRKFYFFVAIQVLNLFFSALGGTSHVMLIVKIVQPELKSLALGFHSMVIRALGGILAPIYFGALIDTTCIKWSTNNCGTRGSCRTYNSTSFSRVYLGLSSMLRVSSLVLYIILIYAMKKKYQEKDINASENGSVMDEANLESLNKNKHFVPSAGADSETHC

CYP3A4 [3] = target: T4, CYP3A4 (Homo sapiens, UniProt P08684); assay type: in vitro ADME; settings: percent compound remaining after 60 min in presence of NADPH
[4] = cited from earlier work
CYP3A4 [5] = target: T4, CYP3A4; assay: biochemical; assay type: in vitro ADME
OATP1B3 = target: T5, OATP1B3 (Homo sapiens, UniProt Q9NPD5); assay: OATP1B3 inhibition; assay type: in vitro ADME
T5 sequence (Q9NPD5 1-702): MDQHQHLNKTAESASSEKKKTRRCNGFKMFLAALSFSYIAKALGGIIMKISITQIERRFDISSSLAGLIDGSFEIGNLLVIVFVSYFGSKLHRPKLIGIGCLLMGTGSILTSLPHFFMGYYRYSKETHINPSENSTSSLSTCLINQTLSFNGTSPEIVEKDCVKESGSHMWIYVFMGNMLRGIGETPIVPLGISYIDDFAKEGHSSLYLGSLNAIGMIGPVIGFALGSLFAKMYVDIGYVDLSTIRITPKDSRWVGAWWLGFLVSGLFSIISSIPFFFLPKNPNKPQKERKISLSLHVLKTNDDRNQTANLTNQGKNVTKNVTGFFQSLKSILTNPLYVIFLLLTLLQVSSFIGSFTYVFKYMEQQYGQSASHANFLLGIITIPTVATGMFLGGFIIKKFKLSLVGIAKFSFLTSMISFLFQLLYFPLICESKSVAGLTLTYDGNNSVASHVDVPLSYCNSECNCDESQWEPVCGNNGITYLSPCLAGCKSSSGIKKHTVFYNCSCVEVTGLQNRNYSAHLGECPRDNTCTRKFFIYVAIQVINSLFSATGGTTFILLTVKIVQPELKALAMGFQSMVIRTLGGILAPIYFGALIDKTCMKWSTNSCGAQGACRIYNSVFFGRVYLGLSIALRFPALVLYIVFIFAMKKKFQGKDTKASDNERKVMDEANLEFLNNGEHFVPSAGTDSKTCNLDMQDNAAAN

[6] = Clinical drug-drug interaction studies; assay type: in vivo, human
other CYP isoforms = assay: In vitro metabolism of [14C]-ziritaxestat by CYP isoforms; assay type: in vitro ADME; settings: human, CYP isoforms other than CYP3A4, 60 min
[7] = cited from earlier work; remark: listed apart in the source
[8] = PBPK drug-drug interaction simulations; design: species or system human
CYP2B6 = settings: source cell empty, row above: ref GastroPlus user manual[10]; cited from earlier work
CYP3A4 [9] = settings: ref GastroPlus user manual[10], cited from earlier work
CYP3A4 [10] = target: T4, CYP3A4; settings: data on file
[11] = cited from earlier work; remark: listed apart in the source
[12] = pravastatin probe verification, interaction with gemfibrozil (OATP1B1 inhibitor)

T4 sequence (P08684 whole entry): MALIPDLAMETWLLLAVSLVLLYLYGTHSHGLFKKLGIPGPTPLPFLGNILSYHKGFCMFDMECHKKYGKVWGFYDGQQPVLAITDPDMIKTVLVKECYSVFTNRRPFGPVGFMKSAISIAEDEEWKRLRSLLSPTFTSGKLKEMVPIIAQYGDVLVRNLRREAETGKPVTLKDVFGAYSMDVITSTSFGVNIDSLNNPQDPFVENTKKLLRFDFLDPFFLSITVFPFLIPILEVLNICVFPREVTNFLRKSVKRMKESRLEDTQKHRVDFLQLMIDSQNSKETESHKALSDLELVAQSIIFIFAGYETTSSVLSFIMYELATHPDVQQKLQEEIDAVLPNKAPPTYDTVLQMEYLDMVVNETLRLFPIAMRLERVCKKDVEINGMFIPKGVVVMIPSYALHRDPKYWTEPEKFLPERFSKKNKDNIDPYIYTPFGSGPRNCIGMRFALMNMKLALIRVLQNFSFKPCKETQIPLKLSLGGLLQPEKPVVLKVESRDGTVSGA
CYP2C9, sequence (P11712 whole entry): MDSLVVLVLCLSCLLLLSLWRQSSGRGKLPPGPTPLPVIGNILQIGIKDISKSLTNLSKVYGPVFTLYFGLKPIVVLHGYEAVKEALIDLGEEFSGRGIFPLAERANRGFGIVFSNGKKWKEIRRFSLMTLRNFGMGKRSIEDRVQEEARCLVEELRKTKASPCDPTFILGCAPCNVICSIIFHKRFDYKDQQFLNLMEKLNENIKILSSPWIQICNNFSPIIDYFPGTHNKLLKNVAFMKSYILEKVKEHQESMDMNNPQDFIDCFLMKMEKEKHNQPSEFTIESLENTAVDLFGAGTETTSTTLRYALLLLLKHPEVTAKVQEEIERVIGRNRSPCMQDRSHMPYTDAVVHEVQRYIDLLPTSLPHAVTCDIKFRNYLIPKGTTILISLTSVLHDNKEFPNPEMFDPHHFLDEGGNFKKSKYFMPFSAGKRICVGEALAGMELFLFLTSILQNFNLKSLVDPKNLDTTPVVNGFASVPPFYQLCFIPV
P-gp, sequence (P08183 whole entry): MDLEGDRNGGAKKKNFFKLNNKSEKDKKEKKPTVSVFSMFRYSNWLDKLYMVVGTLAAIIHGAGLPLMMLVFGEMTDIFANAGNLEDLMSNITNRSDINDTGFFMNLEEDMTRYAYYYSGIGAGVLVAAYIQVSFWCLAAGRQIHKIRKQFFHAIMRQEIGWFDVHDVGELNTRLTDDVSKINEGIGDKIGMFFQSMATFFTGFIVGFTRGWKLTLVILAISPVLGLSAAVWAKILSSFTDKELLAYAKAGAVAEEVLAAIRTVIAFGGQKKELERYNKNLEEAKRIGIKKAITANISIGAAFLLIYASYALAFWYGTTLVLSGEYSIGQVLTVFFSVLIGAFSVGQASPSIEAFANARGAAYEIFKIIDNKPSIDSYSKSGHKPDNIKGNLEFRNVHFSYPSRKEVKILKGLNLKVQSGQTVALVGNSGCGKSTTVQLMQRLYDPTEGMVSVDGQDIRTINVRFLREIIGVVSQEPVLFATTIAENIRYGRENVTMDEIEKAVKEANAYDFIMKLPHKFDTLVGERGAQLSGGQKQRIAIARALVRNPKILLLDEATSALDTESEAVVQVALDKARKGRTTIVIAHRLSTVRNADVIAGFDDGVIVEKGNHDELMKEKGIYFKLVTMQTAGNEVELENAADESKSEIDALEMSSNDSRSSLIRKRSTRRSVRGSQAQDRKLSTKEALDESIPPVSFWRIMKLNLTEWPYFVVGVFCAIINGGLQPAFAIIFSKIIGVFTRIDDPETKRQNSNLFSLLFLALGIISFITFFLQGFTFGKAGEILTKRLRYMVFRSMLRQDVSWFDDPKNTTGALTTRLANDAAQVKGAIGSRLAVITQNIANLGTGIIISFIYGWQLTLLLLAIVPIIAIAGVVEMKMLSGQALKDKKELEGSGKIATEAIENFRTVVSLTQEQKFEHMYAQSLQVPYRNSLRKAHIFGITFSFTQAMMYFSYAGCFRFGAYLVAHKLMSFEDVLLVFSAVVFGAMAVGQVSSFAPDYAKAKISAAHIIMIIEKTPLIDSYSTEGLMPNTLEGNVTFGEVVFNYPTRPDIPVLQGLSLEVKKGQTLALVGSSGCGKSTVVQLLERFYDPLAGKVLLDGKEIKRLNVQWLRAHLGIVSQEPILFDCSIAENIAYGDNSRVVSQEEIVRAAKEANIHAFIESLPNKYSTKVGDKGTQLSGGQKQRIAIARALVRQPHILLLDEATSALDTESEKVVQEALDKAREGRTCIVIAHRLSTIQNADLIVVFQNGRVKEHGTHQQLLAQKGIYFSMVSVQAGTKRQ

For CCc1nc2c(C)cc(N3CCN(CC(=O)N4CC(O)C4)CC3)cn2c1N(C)c1nc(-c2ccc(F)cc2)c(C#N)s1 [Ziritaxestat, ziritaxestat], the Papp (PBPK model) was 120 ×10⁻⁶ cm/s, the Papp [1] was 47 ×10⁻⁶ cm/s and the IC50 (P-gp) was > 40 µM. It also gave an IC50 (CYP2C9) of 13.1 µM, a fraction unbound (CYP2C9; human) of 0.24 and a Ki (CYP2C8) of 0.753 µM. For the same molecule, the “time-dependent inhibition of CYP2C8 (in words)” value (CYP2C8) was “strong”, the fraction unbound (CYP2C8; human) was 0.52 and the solubility ([2]; FaSSIF) was 540 µg/mL (≈ 917 µM). The solubility ([2]; buffer, pH 7.5, aqueous buffer) was 66 µg/mL (≈ 112 µM), the logD ([2]; octanol/water, pH 8.25) was 3.81 and the pKa ([2]; pKa1 (base)) was 4.99. The pKa ([2]; pKa2 (base)) was 5.89, the IC50 (BCRP) was > 40 µM and the “inhibitory potential for OATP1B1 (in words)” value (OATP1B1) was “weak”. For the same molecule, the “[14C]-ziritaxestat metabolized by CYP3A4” value (CYP3A4 [3]; 10 μM) was 84.5%, the “[14C]-ziritaxestat metabolized by CYP3A4” value (CYP3A4 [3]; 100 μM) was 28.6% and the fraction absorbed ([4]; 600 mg dose) was “at least 86%”. The hepatic first-pass metabolism [4] was 9%, the “volume of distribution at steady state from observed data, mean [SD]” value [4] was 23 [11] L and the “renal excretion of total radioactivity” value ([4]; single p.o. 600 mg [14C]-ziritaxestat, healthy male subjects) was < 7%. The IC50 (CYP3A4 [5]) was 3.7 µM, the IC50 (OATP1B3) was 7.04 µM and the “classification as CYP3A4 substrate” value ([6]; human, in vivo) was “moderately sensitive CYP3A4 substrate”. For the same molecule, the “AUC0–∞ ratio, observed DDI ratio” value ([6]; ziritaxestat 600 mg SD with/without voriconazole 800 mg SD, data on file) was 4.0, the “contribution of other CYP isoforms to metabolism (maximum)” value (other CYP isoforms) was ≤ 2.1% and the “mortality (in words)” value ([7]; 200 mg and 600 mg daily doses vs placebo) was “increased mortality compared with placebo”. For the same molecule, the “efficacy in IPF (in words)” value ([7]; 200 mg and 600 mg daily doses) was “failed to demonstrate efficacy”.

In the case of CC(=O)N1CCN(c2ccc(OCC3COC(Cn4ccnc4)(c4ccc(Cl)cc4Cl)O3)cc2)CC1 (stereo not shown) [Ketoconazole], the “observed-to-predicted AUC ratio” value ([8]; efavirenz verification with ketoconazole as victim) is reported as 0.90.

For O=C1Nc2ccc(Cl)cc2[C@@](C#CC2CC2)(C(F)(F)F)O1 [Efavirenz], the “Emax induction CYP2B6” value (CYP2B6) is given as 5.76, the EC50 (CYP3A4 [9]; read-out: EC50 induction CYP3A4) is given as […] and the “Emax induction CYP3A4” value (CYP3A4 [9]) is given as […].

In the case of CC[C@H](C)C(=O)O[C@H]1C[C@H](O)C=C2C=C[C@H](C)[C@H](CC[C@@H](O)C[C@@H](O)CC(=O)O)[C@H]21 [Pravastatin, pravastatin], the “observed-to-predicted AUC ratio” value [8, 12] is reported as 1.03 and the “observed-to-predicted Cmax ratio” value [8, 12] is reported as 1.10.

For COC(=O)c1ccc2c(c1)NC(=O)/C2=C(\Nc1ccc(N(C)C(=O)CN2CCN(C)CC2)cc1)c1ccccc1 [Nintedanib, nintedanib], the “contribution of CYP3A4 to metabolism” value (CYP3A4 [10]) is given as ~ 7%, the “reduction of nintedanib exposure by pirfenidone” value [11] is given as 1.5 fold and the “increase in nintedanib exposure with ziritaxestat” value ([6]; clinical DDI study, data on file) is given as “approximately two‐fold”.

— article PMC10651654 (Clinical and Translational Science, 2023)
